The values that follow come from US8034556B2, “Regulation of glucose and insulin levels by GnT-4 glycosyltransferase activity” (The Regents of the University of California, priority 2004, dated 2011).

Assay [1] has as its system islet cells. Description: In vitro islet cell glucose transport assay (2-NBDG uptake). The class given is cell-based, mouse. To be noted: for Km: Lineweaver-Burke plot, 5 min incubation. The protocol:
Mouse islet cells were obtained as described (Josefsen et al., J. Endocrinology 14: 145-154, 1996). Briefly, the pancreatic duct was ligated distally and injected with 3 mg/ml collagenase (Sigma), 5 μg/ml DNase (Sigma) and 5.6 mM glucose in Hank's balanced salt solution (HBSS)). The pancreas was removed and incubated for 14 min at 37° C. with shaking (200 strokes/min). The suspension was passed through a 16 gauge needle, centrifuged and suspended in the bottom layer of a discontinuous Ficoll gradient (11%, 20%, 23%, and 25%). After 15 min of centrifugation at 800× gravity at room temperature, cells were recovered from the interfaces and washed in HBSS, followed by hand selection of the islet-enriched interface under a stereomicroscope. Islets were gently dispersed after three consecutive washes with HBSS, then exposed to 0.5 U/ml of dispase (Calbiochem) in HBSS for 3 min. This was followed by gentle repetitive pipeting and a final wash with HBSS. The cells were cultured in RPMI-1640 medium containing 10% FCS, 2 mM L-glutamine, 0.1 mM 2-mercaptoethanol, and 11 mM glucose.
Glucose transport into islet cells was measured using 2-[N-(7-nitrobenz-2-oxa-1,3-diazol-4-yl)amino]-2-deoxy-D-glucose (2-NBDG, Molecular Probes) as described (Yamada et al., J. Biol. Chem. 275: 22278-22283, 2000) Islet cells were incubated in glucose free-KRBH for 20 min at 37° C., and then with various concentrations of 2-NBDG. To measure the time course of 2-NBDG transport, islet cells were incubated with 500 μM of 2-NBDG in KRBH in the presence or absence of 10 mM D-glucose for the indicated times (FIG. 2K), then washed three times with glucose free-KRBH, and intracellular fluorescence (excitation 485-495 nm, emission 515-525 nm) was measured using a VersaFluor Fluorometer System (Bio-Rad, Hercules, Calif.). Concentration dependence was determined in same conditions except that cells were incubated with 100 μM, 200 μM, 400 μM, 800 μM, 1.6 mM, 3.2 mM, or 6.4 mM of 2-NBDG for 5 min.

A short description of assay [2]: Arginine tolerance test (serum insulin after L-arginine injection). Type of assay: in vivo. The conditions noted are these: wild-type and GnT-4a deficient mice, fasted 16 hr, i.p. 3 g/Kg. The protocol: Mice were fasted for 16 hr followed by intraperitoneal (i.p.) glucose injection (1.5 g/Kg body weight). Blood samples were obtained at 0, 30, 60, 120, and 240 min after the injection and measurements of glucose and insulin was determined, the latter using a rat insulin ELISA assay with a mouse insulin standard (Crystal Chem., Chicago, Ill.). In testing insulin tolerance, mice were injected i.p. with 2 U/kg body weight human insulin (Carbiochem, La Jolla, Calif.) followed by blood collection at 0, 30, 60 120, and 240 min after injection, and serum glucose levels were analyzed. In arginine tolerance tests, mice were fasted overnight for 16 hr followed by i.p. injection (3 g/Kg body weight) of L-arginine (Sigma, St. Louis, Mo.). Blood samples were analyzed at 0, 2, 5, 15, and 30 min after the injection.

Structures are written as SMILES.

The Km is the substrate concentration at which the rate is half of its maximum.

As for `O=[N+]([O-])c1ccc(N[C@H]2C(O)O[C@H](CO)[C@@H](O)[C@@H]2O)c2nonc12` (stereo partly drawn) [2-NBDG, 2-[N-(7-nitrobenz-2-oxa-1,3-diazol-4-yl)amino]-2-deoxy-D-glucose], the Km in assay [1] (Mgat4a null islet cells) turned out to be 9.1 mM; in assay [1] (wild-type islet cells), 9.53 mM. Further, the “Vmax of 2-NBDG uptake” value is 1.86 nmol/5 min/0.5×10^5 cells in assay [1] (Mgat4a null islets) and 16.95 nmol/5 min/0.5×10^5 cells in assay [1] (wild-type islets).
As to `N=C(N)NCCC[C@H](N)C(=O)O` [L-arginine], in assay [2], the “Serum insulin concentrations after L-arginine treatment” value is reported as “robust increases in serum insulin concentrations”.
